# Assay results as given in US8362249B2, “CXCR3 receptor antagonists” (Boehringer Ingelheim International GmbH, priority 2009, dated 2013).
# Molecular target: CXCR3 (Macaca fascicularis, UniProt A0A2K5UV19)
# Test: functional cellular assay measuring calcium flux in CXCR3 transfected cells (block of CXCR3/IP-10 interaction)
# Assay type: cell-based
# Conditions: IP-10 induced intracellular calcium flux; Cyno-CHO cells stably expressing recombinant CXCR3 and G-alpha-16
# Method: Compounds are assessed for the ability to block the interaction of CXCR3 and IP-10 in a functional cellular assay measuring calcium flux in CXCR3 transfected cells.
# Cyno-CHO cells, stably expressing recombinant CXCR3 and G-alpha-16 are grown in F12 medium (Mediatech #45000-360) supplemented with 10% (V/V) FBS (Mediatech #35-01500), 1% Geneticin (Invitrogen #10131-027) and 0.2% Zeocin (Invitrogen #R250-05). The cells are spun down and re-suspended in growth media to a concentration of 4.8 E5 cells/mL. 25 microL of cell suspension is added to each well of a BD-384-well TC treated plate, providing 12,000 cells/well. The plate is incubated at 37° C./5% CO2 overnight. On the day of the assay, the plates are removed, the media is flicked out and 25 microL of Ca-4 dye in assay buffer (HBSS, 10 mM HEPES ph 7.4), containing 2 mM probenacid is added to each well. The cell assay plates are then incubated at 37° C./5% CO2 for one hour.
# Test compounds are dissolved in DMSO and diluted to 1.045 mM in DMSO. Just prior to assay, 2.75 microL of appropriately diluted test compound are added to each well of a 384 well plate containing 45 microL of HBSS buffer. After mixing, 5 microL of diluted compound are added to each well of the cell assay plate for a final assay concentration of 10 microM. The plate is incubated at room temperature for 15 min. 10 microL of IP-10 stock solution in HBSS (4× EC80 concentration) are added to each well of the cell assay plate except those cells reserved as blank wells containing buffer only. Intracellular calcium flux is recorded on the HAMAMTSU FDSS6000, using excitation at 480 nm and emission at 540 nm. Data are analyzed using Activity Base software.
# In general, the preferred potency range (IC50) of compounds in the above assay is between 1 nM to 3 μM, and the most preferred potency range is 1 nM to 20 nM.
# Chain of CXCR3 (A0A2K5UV19 entry or part of it): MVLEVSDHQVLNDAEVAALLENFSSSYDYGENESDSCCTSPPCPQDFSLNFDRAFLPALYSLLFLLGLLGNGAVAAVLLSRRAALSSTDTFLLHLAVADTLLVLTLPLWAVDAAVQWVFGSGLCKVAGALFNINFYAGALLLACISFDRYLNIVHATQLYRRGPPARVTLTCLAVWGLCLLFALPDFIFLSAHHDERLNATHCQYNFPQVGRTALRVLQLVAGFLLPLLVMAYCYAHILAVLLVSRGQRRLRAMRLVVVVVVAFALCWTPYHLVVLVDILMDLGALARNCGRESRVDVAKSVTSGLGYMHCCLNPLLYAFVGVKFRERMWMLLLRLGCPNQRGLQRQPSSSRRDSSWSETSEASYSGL
row,SMILES,IC50 [nM]
1,O=C(Nc1ccncc1)c1ccccc1N1CCN(C(=O)Cc2cccc3cccnc23)CC1 [N-Pyridin-4-yl-2-[4-(2-quinolin-8-yl-acetyl)-piperazin-1-yl]-benzamide],14
2,"Cc1cc(C)n(CC(=O)N2CCN(c3ccccc3C(=O)Nc3cncc(O)c3)CC2)n1 [2-{4-[2-(3,5-Dimethyl-pyrazol-1-yl)-acetyl]-piperazin-1-yl}-N-(5-hydroxy-pyridin-3-yl)-benzamide]",12.5
3,"Cc1cc(C)n(CC(=O)N2CCN(c3ccccc3C(=O)Nc3nccs3)CC2)n1 [2-{4-[2-(3,5-Dimethyl-pyrazol-1-yl)-acetyl]-piperazin-1-yl}-N-thiazol-2-yl-benzamide]",13
4,"Cc1cc(C)n(CC(=O)N2CCN(c3ccccc3C(=O)Nc3ccc4nc(C)sc4c3)CC2)n1 [2-{4-[2-(3,5-Dimethyl-pyrazol-1-yl)-acetyl]-piperazin-1-yl}-N-(2-methyl-benzothiazol-6-yl)-benzamide]",13
5,"CC(=O)Nc1ccc(NC(=O)c2ccccc2N2CCN(C(=O)Cn3nc(C)cc3C)CC2)cn1 [N-(6-Acetylamino-pyridin-3-yl)-2-{4-[2-(3,5-dimethyl-pyrazol-1-yl)-acetyl]-piperazin-1-yl}-benzamide]",10.2
6,Cn1cccc1C(=O)NCC(=O)N1CCN(c2ccccc2C(=O)Nc2cccnc2)CC1 [1-Methyl-1H-pyrrole-2-carboxylic acid (2-oxo-2-{4-[2-(pyridin-3-ylcarbamoyl)-phenyl]-piperazin-1-yl}-ethyl)-amide],12
7,COc1ccc(C(=O)NCC(=O)N2CCN(c3ccccc3C(=O)Nc3cccnc3)CC2)cc1 [4-Methoxy-N-(2-oxo-2-{4-[2-(pyridin-3-ylcarbamoyl)-phenyl]-piperazin-1-yl}-ethyl)-benzamide],16
8,"COc1cccc(C(=O)N(C)CC(=O)N2CCN(c3ccccc3C(=O)Nc3ccncc3)CC2)c1OC [2,3-Dimethoxy-N-methyl-N-(2-oxo-2-{4-[2-(pyridin-4-ylcarbamoyl)-phenyl]-piperazin-1-yl}-ethyl)-benzamide]",15
9,"COc1cccc(C(=O)NCC(=O)N2CCN(c3ccccc3C(=O)Nc3cccnc3)CC2)c1OC [2,3-Dimethoxy-N-(2-oxo-2-{4-[2-(pyridin-3-ylcarbamoyl)-phenyl]-piperazin-1-yl}-ethyl)-benzamide]",12.5
10,"Cc1csc(NC(=O)c2ccccc2N2CCN(C(=O)Cn3nc(C)cc3C)CC2)n1 [2-{4-[2-(3,5-Dimethyl-pyrazol-1-yl)-acetyl]-piperazin-1-yl}-N-(4-methyl-thiazol-2-yl)-benzamide]",12
11,"Cc1cc(C)n(CC(=O)N2CCN(c3ccccc3C(=O)Nc3nc(-c4ccccn4)cs3)CC2)n1 [2-{4-[2-(3,5-Dimethyl-pyrazol-1-yl)-acetyl]-piperazin-1-yl}-N-(4-pyridin-2-yl-thiazol-2-yl)-benzamide]",11.5
12,"Cc1cc(C)n(CC(=O)N2CCN(c3ccccc3C(=O)Nc3cnc4c(cnn4C(C)C)c3)CC2)n1 [2-{4-[2-(3,5-Dimethyl-pyrazol-1-yl)-acetyl]-piperazin-1-yl}-N-(1-isopropyl-1H-pyrazolo[3,4-b]pyridin-5-yl)-benzamide]",11.5
13,COc1ccc(C(=O)N(C)CC(=O)N2CCN(c3ccccc3C(=O)Nc3ccncc3)CC2)cc1 [4-Methoxy-N-methyl-N-(2-oxo-2-{4-[2-(pyridin-4-ylcarbamoyl)-phenyl]-piperazin-1-yl}-ethyl)-benzamide],15
14,"Cc1cc(C)n(CC(=O)N2CCN(c3ccccc3C(=O)Nc3nc(-c4ccncc4)cs3)CC2)n1 [2-{4-[2-(3,5-Dimethyl-pyrazol-1-yl)-acetyl]-piperazin-1-yl}-N-(4-pyridin-4-yl-thiazol-2-yl)-benzamide]",13.5

# More lines, in order of falling IC50, values ahead:
row,IC50 [nM],SMILES
1,10,"Cc1cc(C)n(CC(=O)N2CCN(c3ccccc3C(=O)Nc3cc(C(C)(C)C)ns3)CC2)n1 [N-(3-tert-Butyl-isothiazol-5-yl)-2-{4-[2-(3,5-dimethyl-pyrazol-1-yl)-acetyl]-piperazin-1-yl}-benzamide]"
2,9.7,"COc1cc(NC(=O)c2cc(F)ccc2N2CCN(C(=O)Cn3nc(C)cc3C)CC2)ccn1 [2-{4-[2-(3,5-Dimethyl-pyrazol-1-yl)-acetyl]-piperazin-1-yl}-5-fluoro-N-(2-methoxy-pyridin-4-yl)-benzamide]"
3,9,"O=C(Nc1ccncc1)c1ccccc1N1CCN(C(=O)CN2CCc3cccnc32)CC1 [2-[4-(2-2,3-Dihydro-pyrrolo[2,3-b]pyridin-1-yl-acetyl)-piperazin-1-yl]-N-pyridin-4-yl-benzamide]"
4,8.7,"Cc1cc(C)n(CC(=O)N2CCN(c3ccccc3C(=O)Nc3cnc4c(c3)c(C)nn4C)CC2)n1 [N-(1,3-Dimethyl-1H-pyrazolo[3,4-b]pyridin-5-yl)-2-{4-[2-(3,5-dimethyl-pyrazol-1-yl)-acetyl]-piperazin-1-yl}-benzamide]"
5,8.5,"Cc1cc(C)n(CC(=O)N2CCN(c3ccccc3C(=O)Nc3ccc(Br)nc3)CC2)n1 [N-(6-Bromo-pyridin-3-yl)-2-{4-[2-(3,5-dimethyl-pyrazol-1-yl)-acetyl]-piperazin-1-yl}-benzamide]"
6,7.6,O=C(NCC(=O)N1CCN(c2ccccc2C(=O)Nc2cccnc2)CC1)c1ccccc1 [2-[4-(2-Benzoylamino-acetyl)-piperazin-1-yl]-N-pyridin-3-yl-benzamide]
7,7.2,"Cc1cc(C)n(CC(=O)N2CCN(c3ccccc3C(=O)Nc3ccnc(Cl)c3)CC2)n1 [N-(2-Chloro-pyridin-4-yl)-2-{4-[2-(3,5-dimethyl-pyrazol-1-yl)-acetyl]-piperazin-1-yl}-benzamide]"
8,5.9,"Cc1cc(C)n(CC(=O)N2CCN(c3ccccc3C(=O)Nc3nc4ccccc4s3)CC2)n1 [N-Benzothiazol-2-yl-2-{4-[2-(3,5-dimethyl-pyrazol-1-yl)-acetyl]-piperazin-1-yl}-benzamide]"
9,5.5,COc1cc(NC(=O)c2ccccc2N2CCN(C(=O)CN(C)C(=O)c3ncoc3C)CC2)ccn1 [5-Methyl-oxazole-4-carboxylic acid (2-{4-[2-(2-methoxy-pyridin-4-ylcarbamoyl)-phenyl]-piperazin-1-yl}-2-oxo-ethyl)-methyl-amide]
10,5.1,"O=C(Nc1ccncc1)c1ccccc1N1CCN(C(=O)CN2Cc3ccccc3C2=O)CC1 [2-{4-[2-(1-Oxo-1,3-dihydro-isoindol-2-yl)-acetyl]-piperazin-1-yl}-N-pyridin-4-yl-benzamide]"
11,5.1,"Cc1cncc(NC(=O)c2ccccc2N2CCN(C(=O)Cn3nc(C)cc3C)CC2)c1 [2-{4-[2-(3,5-Dimethyl-pyrazol-1-yl)-acetyl]-piperazin-1-yl}-N-(5-methyl-pyridin-3-yl)-benzamide]"
12,4.7,"Cc1cc(C)n(CC(=O)N2CCN(c3ccccc3C(=O)Nc3ccncc3)CC2)n1 [2-{4-[2-(3,5-Dimethyl-pyrazol-1-yl)-acetyl]-piperazin-1-yl}-N-pyridin-4-yl-benzamide]"
13,4.6,"COc1ccc(C(=O)NCC(=O)N2CCN(c3ccccc3C(=O)Nc3ccncc3)CC2)cc1OC [3,4-Dimethoxy-N-(2-oxo-2-{4-[2-(pyridin-4-ylcarbamoyl)-phenyl]-piperazin-1-yl}-ethyl)-benzamide]"
14,4.5,"Cc1cc(C)n(CC(=O)N2CCN(c3ccccc3C(=O)Nc3cccc(C#N)c3)CC2)n1 [N-(3-Cyano-phenyl)-2-{4-[2-(3,5-dimethyl-pyrazol-1-yl)-acetyl]-piperazin-1-yl}-benzamide]"
15,4.3,"COc1cccc(NC(=O)c2ccccc2N2CCN(C(=O)Cn3nc(C)cc3C)CC2)c1 [2-{4-[2-(3,5-Dimethyl-pyrazol-1-yl)-acetyl]-piperazin-1-yl}-N-(3-methoxy-phenyl)-benzamide]"
16,4.2,"Cc1cc(C)n(CC(=O)N2CCN(c3ccccc3C(=O)Nc3ccc(C(F)(F)F)cc3)CC2)n1 [2-{4-[2-(3,5-Dimethyl-pyrazol-1-yl)-acetyl]-piperazin-1-yl}-N-(4-trifluoromethyl-phenyl)-benzamide]"
17,4.2,Cn1cccc1C(=O)NCC(=O)N1CCN(c2ccccc2C(=O)Nc2ccncc2)CC1 [1-Methyl-1H-pyrrole-2-carboxylic acid (2-oxo-2-{4-[2-(pyridin-4-ylcarbamoyl)-phenyl]-piperazin-1-yl}-ethyl)-amide]
18,3.4,O=C(Nc1ccncc1)c1ccccc1N1CCN(C(=O)Cn2cnc3ccccc3c2=O)CC1 [2-{4-[2-(4-Oxo-4H-quinazolin-3-yl)-acetyl]-piperazin-1-yl}-N-pyridin-4-yl-benzamide]
19,3.4,COc1ccc(C(=O)NCC(=O)N2CCN(c3ccccc3C(=O)Nc3ccncc3)CC2)cc1 [4-Methoxy-N-(2-oxo-2-{4-[2-(pyridin-4-ylcarbamoyl)-phenyl]-piperazin-1-yl}-ethyl)-benzamide]
20,3,"O=C(Nc1cc(Cl)cnc1N1CCCN(C(=O)CN2CCCCC2)CC1)c1cccc(Cl)c1 [3-Chloro-N-{5-chloro-2-[4-(2-piperidin-1-yl-acetyl)-[1,4]diazepan-1-yl]-pyridin-3-yl}-benzamide]"
